For series [1] the following is noted: in vivo. The method, then:
The ability to detect the blood concentration of a pain reliever, such as liquid acetaminophen in the blood stream by measuring a tracer is described. The research is carried out by two researchers A & B.
10 ml liquid cough medicine (acetaminophen) 10 ml of 80 proof vodka
Researcher “A” combines the liquid cough medicine together with the vodka in a common flask. “A” stirs until mixed. “A” gives the mixture to the study subject to consume orally. Waits 30 minutes. Subject breathes into breathalyzer, “A” extracts blood sample. “A” repeats both measurements 8 more times at 30 minute intervals. “A” compares alcohol readings with a PK curve for alcohol; compares mass spectrometer analysis of blood for the presence of acetaminophen with a PK curve for acetaminophen.
The standard PK curves for alcohol & acetaminophen are provided to “B”, and he is told the must analyze one reading that was taken 2 hours after ingestion, and determine whether the alcohol reading was within the anticipated range of PK curve. He is given the alcohol breathalyzer result for 2 hours after ingestion.

The conditions of series [2]: rats, within 24 hours of administration; cited from earlier work.

With `CCO` [alcohol], the “2-hour breathalyzer reading versus anticipated range of PK curve” value in series [1] was “fall within statistical range”. Moreover, in series [1] (po), the “PK results versus standard PK curve for alcohol” value was “fall within range of the standard PK curve”.
On to `CC(=O)Nc1ccc(O)cc1` [acetaminophen], for which, in series [1] (po), the “PK results versus standard PK curve for acetaminophen” value is listed as “fall within range of the standard PK curve”.
As for `CC(C)=CCCC(C)=CC=O` [Citral], the “fraction of the given dose excreted in urine” value in series [2] was 50%.
